Source: patent publication US12480137B2, “Plants having increased tolerance to herbicides” (BASF SE, priority 2014, dated 2025)

How the values were obtained:
Format in all cases: in vivo, Arabidopsis thaliana
[1] = system: Arabidopsis mutant line Cesa1_P1010L; experiment: Growth inhibition of Arabidopsis lines in 48-well plates, tolerance factor from IC50; conditions: growth inhibition seven to ten days after seeding
Source text: (§1) For selection of cellulose biosynthesis inhibitor resistant plants EMS mutagenized seed populations of Arabidopsis thaliana are used. EMS mutagenized seed populations are either bought from Lehle Seeds (1102 South Industrial Blvd. Suite D, Round Rock, Texas USA) or are generated as described elsewhere (Heim D R, et. al. (1989) Plant Physiol. 90: 146-150). Causative mutations in CESA wildtype sequences (e.g. SEQ ID NO: 1 or 3) are identified as described by Scheible W R et. al. (2001, Proc. Natl. Acad. of Sci. 98: 10079-10084), McCourt et. al. (WO2013/142968) or with the use of next generation sequencing methods as described by Austin R S, et. al. (2011) Plant Journal 67: 715-725.
(§2) Selected Arabidopsis thaliana lines were assayed for improved resistance to azines like 6-cyclopentyl-N4-(2,3,4,5,6-pentafluorophenyl)-1,3,5-triazine-2,4-diamine; 6-(1-fluoro-1-methyl-ethyl)-N4-(2,3,4,5,6-pentafluorophenyl)-1,3,5-triazine-2,4-diamine; 6-cyclohexyl-N2-(2,3,4,5,6-pentafluorophenyl)-1,3,5-triazine-2,4-diamine; 6-(2,6-difluorophenyl)-N2-(2,3,5,6-tetrafluorophenyl)-1,3,5-triazine-2,4-diamine; N2-(4-chloro-3,5,6-trifluoro-2-pyridyl)-6-(1-fluoro-1-methyl-ethyl)-1,3,5-triazine-2,4-diamine in 48-well plates. Therefore, M2 or M3 seeds are surface sterilized by stirring for 5 min in ethanol+water (70+30 by volume), rinsing one time with ethanol+water (70+30 by volume) and two times with sterile, deionized water. The seeds are resuspended in 0.1% agar dissolved in water (w/v) Four to five seeds per well are plated on solid nutrient medium consisting of half-strength murashige skoog nutrient solution, pH 5.8 (Murashige and Skoog (1962) Physiologia Plantarum 15: 473-497). Compounds are dissolved in dimethylsulfoxid (DMSO) and added to the medium prior solidification (final DMSO concentration 0.1%). Multi well plates are incubated in a growth chamber at 22° C., 75% relative humidity and 110 μmol Phot*m^−2*s^−1 with 14:10 h light:dark photoperiod. Growth inhibition is evaluated seven to ten days after seeding in comparison to wild type plants. Tolerance factors are calculated based on IC50 values of growth inhibition of transformed versus non-transformed Arabidopsis plants (Table 3).

[2] = system: Arabidopsis mutant line Cesa3_S1040L; experiment: as above; conditions: growth inhibition seven to ten days after seeding
Source text: as §1, §2

[3] = system: Arabidopsis mutant line Cesa3_S983F; experiment: as above; conditions: growth inhibition seven to ten days after seeding
Source text: as §1, §2

[4] = system: Arabidopsis mutant line Cesa1_G1009D; experiment: as above; conditions: growth inhibition seven to ten days after seeding
Source text: as §1, §2

[5] = system: wildtype Arabidopsis plants; experiment: as above; conditions: growth inhibition seven to ten days after seeding
Source text: as §1, §2

[6] = system: Arabidopsis mutant line Cesa3_S1037F; experiment: as above; conditions: growth inhibition seven to ten days after seeding
Source text: as §1, §2

[7] = system: Arabidopsis mutant line Cesa1_G1013R; experiment: as above; conditions: growth inhibition seven to ten days after seeding
Source text: as §1, §2

[8] = system: Cesa1_G1013R, fpx2-1 mutant line; experiment: Greenhouse phytotox, pre-emergent treatment
Protocol: (§3) Additionally, M2 or M3 Arabidopsis plants are tested for improved tolerance to cellulose biosynthesis-inhibiting herbicides in greenhouse studies (e. g. with the following cellulose biosynthesis-inhibiting herbicides: 6-cyclopentyl-N4-(2,3,4,5,6-pentafluorophenyl)-1,3,5-triazine-2,4-diamine; 6-(1-fluoro-1-methyl-ethyl)-N4-(2,3,4,5,6-pentafluorophenyl)-1,3,5-triazine-2,4-diamine; N4-(4-chloro-3,5,6-trifluoro-2-pyridyl)-6-(1-fluoro-1-methyl-ethyl)-1,3,5-triazine-2,4-diamine; 6-(2,6-difluorophenyl)-N4-(2,3,5,6-tetrafluorophenyl)-1,3,5-triazine-2,4-diamine; N4-(4-bromo-2,3,5,6-tetrafluoro-phenyl)-6-(1-fluoro-1-methyl-ethyl)-1,3,5-triazine-2,4-diamine.

[9] = system: Cesa1_P1010L, fpx2-2 mutant line; experiment: Greenhouse phytotox, pre-emergent treatment
Protocol: as §3

[10] = system: A. thaliana WT L. erecta; experiment: Greenhouse phytotox, pre-emergent treatment
Protocol: as §3

[11] = system: Cesa3_S1037F, fpx1-2 mutant line; experiment: Greenhouse phytotox, pre-emergent treatment
Protocol: as §3

[12] = system: Cesa3_S983F, fpx1-3 mutant line; experiment: Greenhouse phytotox, pre-emergent treatment
Protocol: as §3

[13] = system: Cesa1_G1009D, fpx2-3 mutant line; experiment: Greenhouse phytotox, pre-emergent treatment
Protocol: as §3

[14] = system: Cesa3_S1040L, fpx1-1 mutant line; experiment: Greenhouse phytotox, pre-emergent treatment
Protocol: as §3

**Q.** What does the source list for `CC(C)(F)c1nc(N)nc(Nc2c(F)c(F)c(F)c(F)c2F)n1` [6-(1-fluoro-1-methyl-ethyl)-N4-(2,3,4,5,6-pentafluorophenyl)-1,3,5-triazine-2,4-diamine]?
**A.** Relative tolerance rate (wildtype = 1.0) [1]: 1; Relative tolerance rate (wildtype = 1.0) [2]: 2; Relative tolerance rate (wildtype = 1.0) [3]: 1; Relative tolerance rate (wildtype = 1.0) [4]: 2; Relative tolerance rate (wildtype = 1.0) [5]: 1; Relative tolerance rate (wildtype = 1.0) [6]: 4; Relative tolerance rate (wildtype = 1.0) [7]: 4; Phytotox value on a scale from 0-100 (100 is 100% damage) ([8]; 0.0625 g ai/ha): 13; Phytotox value on a scale from 0-100 (100 is 100% damage) ([8]; 0.25 g ai/ha): 65; Phytotox value on a scale from 0-100 (100 is 100% damage) ([8]; 0.98 g ai/ha): 63; Phytotox value on a scale from 0-100 (100 is 100% damage) ([8]; 3.91 g ai/ha): 97; Phytotox value on a scale from 0-100 (100 is 100% damage) ([9]; 0.0625 g ai/ha): 43; Phytotox value on a scale from 0-100 (100 is 100% damage) ([9]; 0.25 g ai/ha): 50; Phytotox value on a scale from 0-100 (100 is 100% damage) ([9]; 0.98 g ai/ha): 99; Phytotox value on a scale from 0-100 (100 is 100% damage) ([9]; 3.91 g ai/ha): 100; Phytotox value on a scale from 0-100 (100 is 100% damage) ([10]; 0.0625 g ai/ha): 38; Phytotox value on a scale from 0-100 (100 is 100% damage) ([10]; 0.25 g ai/ha): 78; Phytotox value on a scale from 0-100 (100 is 100% damage) ([10]; 0.98 g ai/ha): 100; Phytotox value on a scale from 0-100 (100 is 100% damage) ([10]; 3.91 g ai/ha): 100; Phytotox value on a scale from 0-100 (100 is 100% damage) ([11]; 0.0625 g ai/ha): 10; Phytotox value on a scale from 0-100 (100 is 100% damage) ([11]; 0.25 g ai/ha): 20; Phytotox value on a scale from 0-100 (100 is 100% damage) ([11]; 0.98 g ai/ha): 30; Phytotox value on a scale from 0-100 (100 is 100% damage) ([11]; 3.91 g ai/ha): 80; Phytotox value on a scale from 0-100 (100 is 100% damage) ([12]; 0.0625 g ai/ha): 78; Phytotox value on a scale from 0-100 (100 is 100% damage) ([12]; 0.25 g ai/ha): 45; Phytotox value on a scale from 0-100 (100 is 100% damage) ([12]; 0.98 g ai/ha): 75; Phytotox value on a scale from 0-100 (100 is 100% damage) ([12]; 3.91 g ai/ha): 98; Phytotox value on a scale from 0-100 (100 is 100% damage) ([13]; 0.0625 g ai/ha): 65; Phytotox value on a scale from 0-100 (100 is 100% damage) ([13]; 0.25 g ai/ha): 78; Phytotox value on a scale from 0-100 (100 is 100% damage) ([13]; 0.98 g ai/ha): 97; Phytotox value on a scale from 0-100 (100 is 100% damage) ([13]; 3.91 g ai/ha): 100; Phytotox value on a scale from 0-100 (100 is 100% damage) ([14]; 0.0625 g ai/ha): 20; Phytotox value on a scale from 0-100 (100 is 100% damage) ([14]; 0.25 g ai/ha): 65; Phytotox value on a scale from 0-100 (100 is 100% damage) ([14]; 0.98 g ai/ha): 75; Phytotox value on a scale from 0-100 (100 is 100% damage) ([14]; 3.91 g ai/ha): 98

**Q.** What does the source list for `Nc1nc(Nc2c(F)c(F)cc(F)c2F)nc(-c2c(F)cccc2F)n1` [6-(2,6-difluorophenyl)-N2-(2,3,5,6-tetrafluorophenyl)-1,3,5-triazine-2,4-diamine]?
**A.** Relative tolerance rate (wildtype = 1.0) [1]: 2; Relative tolerance rate (wildtype = 1.0) [2]: 13; Relative tolerance rate (wildtype = 1.0) [3]: 1; Relative tolerance rate (wildtype = 1.0) [4]: 1; Relative tolerance rate (wildtype = 1.0) [5]: 1; Relative tolerance rate (wildtype = 1.0) [6]: 1; Relative tolerance rate (wildtype = 1.0) [7]: 13; Phytotox value on a scale from 0-100 (100 is 100% damage) ([8]; 0.98 g ai/ha): 15; Phytotox value on a scale from 0-100 (100 is 100% damage) ([8]; 3.91 g ai/ha): 35; Phytotox value on a scale from 0-100 (100 is 100% damage) ([8]; 15.63 g ai/ha): 28; Phytotox value on a scale from 0-100 (100 is 100% damage) ([8]; 62.5 g ai/ha): 40; Phytotox value on a scale from 0-100 (100 is 100% damage) ([9]; 0.98 g ai/ha): 48; Phytotox value on a scale from 0-100 (100 is 100% damage) ([9]; 3.91 g ai/ha): 35; Phytotox value on a scale from 0-100 (100 is 100% damage) ([9]; 15.63 g ai/ha): 65; Phytotox value on a scale from 0-100 (100 is 100% damage) ([9]; 62.5 g ai/ha): 98; Phytotox value on a scale from 0-100 (100 is 100% damage) ([10]; 0.98 g ai/ha): 30; Phytotox value on a scale from 0-100 (100 is 100% damage) ([10]; 3.91 g ai/ha): 70; Phytotox value on a scale from 0-100 (100 is 100% damage) ([10]; 15.63 g ai/ha): 90; Phytotox value on a scale from 0-100 (100 is 100% damage) ([10]; 62.5 g ai/ha): 100; Phytotox value on a scale from 0-100 (100 is 100% damage) ([11]; 0.98 g ai/ha): 28; Phytotox value on a scale from 0-100 (100 is 100% damage) ([11]; 3.91 g ai/ha): 65; Phytotox value on a scale from 0-100 (100 is 100% damage) ([11]; 15.63 g ai/ha): 73; Phytotox value on a scale from 0-100 (100 is 100% damage) ([11]; 62.5 g ai/ha): 99; Phytotox value on a scale from 0-100 (100 is 100% damage) ([12]; 0.98 g ai/ha): 18; Phytotox value on a scale from 0-100 (100 is 100% damage) ([12]; 3.91 g ai/ha): 35; Phytotox value on a scale from 0-100 (100 is 100% damage) ([12]; 15.63 g ai/ha): 43; Phytotox value on a scale from 0-100 (100 is 100% damage) ([12]; 62.5 g ai/ha): 33; Phytotox value on a scale from 0-100 (100 is 100% damage) ([13]; 0.98 g ai/ha): 65; Phytotox value on a scale from 0-100 (100 is 100% damage) ([13]; 3.91 g ai/ha): 38; Phytotox value on a scale from 0-100 (100 is 100% damage) ([13]; 15.63 g ai/ha): 18; Phytotox value on a scale from 0-100 (100 is 100% damage) ([13]; 62.5 g ai/ha): 95; Phytotox value on a scale from 0-100 (100 is 100% damage) ([14]; 0.98 g ai/ha): 13; Phytotox value on a scale from 0-100 (100 is 100% damage) ([14]; 3.91 g ai/ha): 8; Phytotox value on a scale from 0-100 (100 is 100% damage) ([14]; 15.63 g ai/ha): 25; Phytotox value on a scale from 0-100 (100 is 100% damage) ([14]; 62.5 g ai/ha): 28
